Test results published in the Deep4Chem optical property database.
Several values for one entry are separate records, joined by “and”; a condition that tells them apart may be missing. Identical values can stand only once.

Experiment: solvent given as SMILES
[1] = in O=P(c1ccccc1)(c1ccccc1)c1ccccc1Oc1ccccc1P(=O)(c1ccccc1)c1ccccc1

CCN(CC)c1ccc2cc(/C=C/C(=C(C#N)C#N)c3ccc4c(c3)c3ccccc3n4CC)c(=O)oc2c1
emission maximum (in CC(C)=O): 614 nm | emission maximum (in CCOC(C)=O): 590 nm | emission maximum (in CN(C)C=O): 629 nm | emission maximum (in CS(C)=O): 638 nm | emission maximum (in Cc1ccccc1): 571 nm | emission maximum (in ClCCl): 604 nm

O=c1[nH]c(=O)n([C@@H]2O[C@H](CO)[C@@H](O)[C@H]2O)cc1-c1cc2ccccc2s1
emission maximum (in C1COCCO1): 435 nm | emission maximum (in CC#N): 443 nm | emission maximum (in CO): 446 nm | emission maximum (in O): 458 nm

CCN(CC)c1ccc2cc(-c3cn4cc(OC)ccc4n3)c(=O)oc2c1
emission maximum (in ClC(Cl)Cl): 478 nm

CC[C@H](C)COc1ccc(C2=C3C(C)=CC(C)=[N+]3[B-](F)(F)n3c(C)cc(C)c32)cc1
emission maximum (in ClCCl): 520 nm

[NH3+]c1ccc2ccc([O-])cc2c1
emission maximum (in O): 425 nm

Cc1ccc2nc(-c3cccc4nc(C)[nH]c(=O)c34)oc2c1
emission maximum (in CN(C)C=O): 410 nm

COc1ccc2c3ccc(OC)cc3c3cc4c(C)cc(=O)oc4cc3c2c1
emission maximum (in ClC(Cl)Cl): 475 nm

F[Si](c1c2ccccc2cc2ccccc12)(c1c2ccccc2cc2ccccc12)c1c2ccccc2cc2ccccc12
emission maximum (in C1CCOC1): 416 nm | emission maximum (in ClC(Cl)Cl): 434 nm

COc1cc(OC)c2c(c1)c1c(c3ccc(C(C)(C)C)cc32)=[N+]2C(=Nc3c(-c4cc(OC)c(OC)c(OC)c4)c4c5cc(OC)cc(OC)c5c5cc(C(C)(C)C)ccc5c4n3[B-]2(F)F)C=1c1cc(OC)c(OC)c(OC)c1
emission maximum (in Cc1ccccc1): 809 nm

O=C1NC(=O)c2ccc(N3CCCCC3)c3cccc1c23
emission maximum (in ClC(Cl)Cl): 517 nm

CC1=[N+]2C(=C(c3ccc(N(C)C)cc3)c3ccc(C)n3[B-]2(F)F)C=C1
emission maximum (in C1CCCCC1): 518 nm | emission maximum (in C1CCOC1): 517 nm | emission maximum (in CC#N): 511 nm | emission maximum (in CC(=O)C(C)(C)C): 512 nm | emission maximum (in CC(C)=O): 515 nm | emission maximum (in CCCCCC): 519 nm | emission maximum (in CCOC(C)=O): 513 nm | emission maximum (in CO): 511 nm | emission maximum (in Cc1ccccc1): 580 nm | emission maximum (in ClC(Cl)Cl): 615 nm

O=c1c2cc(F)c(O)cc2n(-c2ccccc2)c2cc(O)c(F)cc12
emission maximum (in CCO): 454 nm

CCOC(=O)COc1ccc(/C=C/c2c(CC)c(C)c3n2[B-](F)(F)[N+]2=C(c4[nH]c(C)c(CC)c4C)c4ccccc4C2=C3C)cc1
emission maximum (in C1CCOC1): 709 nm | emission maximum (in CC#N): 707 nm | emission maximum (in CCCCCC): 698 nm | emission maximum (in CO): 711 nm | emission maximum (in Cc1ccccc1): 709 nm | emission maximum (in ClCCl): 714 nm

O=C(c1ccc(-n2c3ccccc3c3ccccc32)cc1)c1ccc(-n2c3ccccc3c3ccccc32)cc1
emission maximum (in Cc1ccccc1): 438 nm | emission maximum [1]: 444 nm

CCCCOc1ccc(/C=C/C2=[N+]3C(=C(c4ccc(I)cc4)c4c(/C=C/c5ccc(N(C)C)cc5)cc(/C=C/c5ccc(OC)cc5)n4[B-]3(F)F)C(/C=C/c3ccc(OCCOCCOC)cc3)=C2)cc1
emission maximum (in C1COCCO1): 714 nm

CCCCCCCCN1C(=O)c2ccc3c4c(-c5ccc6c(c5)c5ccccc5n6-c5ccccc5)cc5c6c(ccc(c7c(-c8ccc9c(c8)c8ccccc8n9-c8ccccc8)cc(c2c37)C1=O)c64)C(=O)N(CCCCCCCC)C5=O
emission maximum (in ClC(Cl)Cl): 689 nm

COc1cc(/C=C/C(=O)CC(=O)/C=C/c2ccc(O)c(OC)c2)ccc1O
emission maximum (in C1CCCCC1): 446 nm | emission maximum (in CC#N): 538 nm | emission maximum (in CN(C)C=O): 542 nm | emission maximum (in CO): 560 nm | emission maximum (in CS(C)=O): 549 nm | emission maximum (in c1ccccc1): 464 nm

CC1=[N+]2C(=C(C3=CC4OCCOCCOCCOCCOC4C=C3)c3c4ccccc4c(/C=C/c4ccc(N(C)C)cc4)n3[B-]2(F)F)c2ccccc21 (stereo not drawn)
emission maximum (in CC#N): 741 nm

CCCCCCCCCCCCn1cccc1/C=C/c1ccc(OCCCC)c2c(/C=C/c3cccn3CCCCCCCCCCCC)ccc(OCCCC)c12
emission maximum (in Cc1ccccc1): 490 nm

N#Cc1nn(-c2c(Cl)cccc2Cl)nc1N1CCCC1
emission maximum (in CC#N): 418 nm

COc1ccc(/C=C/C(F)(F)F)c(N)c1
emission maximum (in C1CCOC1): 410 nm

CN(C)c1ccc(C2=[N+]3C(=Nc4c(-c5ccc(O)cc5)cc(-c5ccc(N(C)C)cc5)n4[B-]3(F)F)C(c3ccc(O)cc3)=C2)cc1
emission maximum (in C1CCOC1): 815 nm | emission maximum (in CS(C)=O): 832 nm | emission maximum (in Cc1ccccc1): 813 nm

C[n+]1ccc(/C=C/c2ccc(N(c3ccccc3)c3ccc(/C=C/c4cc[n+](C)cc4)cc3)cc2)cc1
emission maximum (in ClCCl): 502 nm | emission maximum (in O): 656 nm | emission maximum (in OCC(O)CO): 649 nm

CCOC(=O)c1ccc(C2CC(c3cccc4ccccc34)=NN2c2ccc(F)cc2)cc1 (stereo not drawn)
emission maximum (in ClCCl): 481 nm

CCN(CC)c1ccc2cc(-c3cn4cc5ccccc5cc4n3)c(=O)oc2c1
emission maximum (in ClC(Cl)Cl): 460 nm

CCCCCCOc1ccc2oc3c(c2c1)=CC1=C(c2ccccc2C)c2cc4c5cc(OCCCCCC)ccc5oc4n2[B-](F)(F)[N+]=31
emission maximum (in C1CCCCC1): 603 nm | emission maximum (in CCOC(C)=O): 602.5 nm | emission maximum (in CO): 603 nm

Cc1nnc(-c2cc(-c3nnc(C)o3)c(-n3c4ccccc4c4ccccc43)cc2-n2c3ccccc3c3ccccc32)o1
emission maximum (in Cc1ccccc1): 444 nm | emission maximum [1]: 448 nm

Cc1nc(-c2ccccc2)c2ccccn12
emission maximum (in C1CCCCC1): 475 nm | emission maximum (in CC#N): 467 nm | emission maximum (in CO): 473 nm | emission maximum (in ClCCl): 485 nm | emission maximum (in O): 470 nm

CC(C)[Si](C#Cc1c2nc3ccccc3nc2c(C#C[Si](C(C)C)(C(C)C)C(C)C)c2nc3c(ccc4ccccc43)nc12)(C(C)C)C(C)C
emission maximum (in CCCCCC): 656 nm

CCN(CC)c1ccc2c(c1)OC1=C(/C=C/C3=[N+](C)c4ccc5ccccc5c4C3(C)C)CCCC1=C2c1ccccc1C(=O)O
emission maximum (in CC#N): 763 nm | emission maximum (in CCO): 750 nm | emission maximum (in CO): 753 nm | emission maximum (in ClC(Cl)Cl): 761 nm

CCCCOc1ccc(-c2oc3c(-c4ccc(OCCCC)cc4)c4n(c3c2-c2ccc(OCCCC)cc2)[B-](F)(F)[N+]2=Cc3c(-c5ccc(OCCCC)cc5)c5oc(-c6ccc(OCCCC)cc6)c(-c6ccc(OCCCC)cc6)c5n3[B-](F)(F)[N+]2=C4)cc1
emission maximum (in C1CCOC1): 663 nm | emission maximum (in CN(C)C=O): 672 nm | emission maximum (in CS(C)=O): 676 nm | emission maximum (in Cc1ccccc1): 668 nm | emission maximum (in ClC(Cl)Cl): 666 nm | emission maximum (in ClCCl): 667 nm

Cc1ccc2c(c1)C(c1ccccc1)(c1ccccc1)c1cc(C)ccc1N2c1ccc2c(c1)Sc1ccccc1B2c1c(C(C)C)cc(C(C)C)cc1C(C)C
emission maximum (in Cc1ccccc1): 493 nm | emission maximum (in O=P(c1ccccc1)(c1ccccc1)c1ccc2oc3ccc(P(=O)(c4ccccc4)c4ccccc4)cc3c2c1): 497 nm

Cc1cc(-c2nc(-c3ccccc3)nc(-c3ccccc3)n2)ccc1N1c2ccccc2C2(c3ccccc3-c3ccccc32)c2ccccc21
emission maximum (in Cc1ccccc1): 481 nm

CC(C)(C)c1cccc2c1oc1nc3oc4ccc(-n5c6ccccc6c6ccccc65)cc4c3cc12
emission maximum (in ClC(Cl)Cl): 419 nm

COc1ccc(-c2cc3c(s2)c(C(=O)c2ccccc2)cc(=O)n3Cc2ccccc2)cc1
emission maximum (in CC#N): 558 nm | emission maximum (in ClCCl): 547 nm

CCc1ccc(C2=[N+]3C(=Cc4c5ccc(OC)cc5c(-c5ccc(CC)s5)n4[B-]3(F)F)c3ccc(OC)cc32)s1
emission maximum (in ClCCl): 780 nm

c1ccc2c(c1)CCc1ccccc1N2c1c2ccccc2c(N2c3ccccc3CCc3ccccc32)c2ccccc12
emission maximum (in Cc1ccccc1): 525 nm

C[Si]1(C)c2ccc(-c3ccc(-c4cccs4)s3)cc2C=Cc2cc(-c3ccc(-c4cccs4)s3)ccc21
emission maximum (in ClCCl): 424 nm

COC(=O)COc1ccc(/C=C/C2=[N+]3C(=C(c4ccc(N(C)C)cc4)c4c(C)cc(C)n4[B-]3(F)F)C(C)=C2)cc1
emission maximum (in CO): 580 nm

O=c1cc2c(-c3c(O)c4cccc5ccc6oc(=O)cc3c6c54)c(O)c3cccc4ccc(o1)c2c43
emission maximum (in CC1CCCO1): 552 nm

CCOC(CN1C(=O)C2=C(c3ccc(OC)c(OC)c3)N(CC(OCC)OCC)C(=O)C2=C1c1ccc(OC)c(OC)c1)OCC
emission maximum (in ClC(Cl)Cl): 538 nm

C1=C(c2ccccc2)S[C@]23C1=C(c1ccccc1)[C@H](c1ccccc12)c1ccccc13
emission maximum (in ClCCl): 491 nm

COC(=O)COc1ccc(/C=C/C2=[N+]3C(=C(c4ccc(N5CCCCC5)cc4)c4c(C)cc(C)n4[B-]3(F)F)C(C)=C2)cc1
emission maximum (in CO): 581 nm

c1cncc(-c2ccc(-c3c4ccccc4c(-c4ccc(-c5cccnc5)cc4)c4cc(-c5cccnc5)ccc34)cc2)c1
emission maximum (in ClCCl): 434 nm

C#CCOc1ccc(/C=C/C2=[N+]3C(=C(c4ccc(N(CC)CC)cc4)c4c(C)cc(/C=C/c5ccc(OCC(=O)OC)cc5)n4[B-]3(F)F)C(C)=C2)cc1
emission maximum (in CO): 655 nm

CC1=[N+]2C(=C(c3ccc4c(c3)Cc3ccccc3-4)c3ccc(C)n3[B-]2(F)F)C=C1c1cc2n(c1)[B-](F)(F)[N+]1=CC=CC1=C2c1c(C)cc(C)cc1C
emission maximum (in C1CCCCC1): 645 nm | emission maximum (in CCOC(C)=O): 675 nm

CC1=[N+]2C(=C(c3ccc(N4CCOCC4)cc3)c3ccc(C)n3[B-]2(F)F)C=C1
emission maximum (in C1CCCCC1): 520 nm | emission maximum (in C1CCOC1): 695 nm and 528 nm | emission maximum (in CC#N): 534 nm | emission maximum (in CC(=O)C(C)(C)C): 530 nm | emission maximum (in CC(C)=O): 517 nm | emission maximum (in CCCCCC): 520 nm | emission maximum (in CCOC(C)=O): 520 nm | emission maximum (in CO): 521 nm | emission maximum (in Cc1ccccc1): 524 nm | emission maximum (in ClC(Cl)Cl): 531 nm

c1ccc(N(c2ccccc2)c2ccc(-c3ccc4c(c3)C3(c5cc(-c6ccc(N(c7ccccc7)c7ccccc7)cc6)ccc5O4)c4ccccc4-c4ccccc43)cc2)cc1
emission maximum (in ClCCl): 419 nm | emission maximum (in c1cc(-n2c3ccccc3c3ccccc32)cc(-n2c3ccccc3c3ccccc32)c1): 407 nm

C(#Cc1ccccc1)C1=Cc2ccc3ccccc3c2NB1c1ccccc1
emission maximum (in C1CCCCC1): 416 nm

CC(C)(C)c1ccc2oc3nc4oc5ccc(-n6c7ccccc7c(=O)c7ccccc76)cc5c4cc3c2c1
emission maximum (in ClC(Cl)Cl): 409 nm

CCCCCCCCCCOc1ccc(C#Cc2cc3c(C#Cc4ccc(OCCCCCCCCCC)cc4)c(C#Cc4ccc(OCCCCCCCCCC)cc4)c4cc(C#Cc5ccc(OCCCCCCCCCC)cc5)cc5c(C#Cc6ccc(OCCCCCCCCCC)cc6)c(C#Cc6ccc(OCCCCCCCCCC)cc6)c(c2)c3c45)cc1
emission maximum (in ClCCl): 466 nm

CCOc1cc(C=C2c3ccccc3-c3ccccc32)c(OCC)cc1C=C1c2ccccc2C=Cc2ccccc21
emission maximum (in C1CCOC1): 474 nm
